Data taken from publication PMC7265341, “Quantifying CDK inhibitor selectivity in live cells” (Nature Communications, 2020).
Like-named read-outs stand apart in the source and are kept apart here.

Legend:
[1] = molecular target: CDK15/Cyclin Y (Homo sapiens, UniProt Q96Q40); assay: NanoBRET live-cell target engagement, NanoLuc-CDK15/Cyclin Y in HEK-293; format: binding; conditions: CDK15/Y, 10µM
[2] = molecular target: CDK17/Cyclin Y (Homo sapiens, UniProt Q00537); assay: NanoBRET live-cell target engagement, CDK17-NanoLuc/Cyclin Y in HEK-293; format: binding; conditions: CDK17/Y, 10µM
Chain of CDK17/Cyclin Y (Q00537 whole entry): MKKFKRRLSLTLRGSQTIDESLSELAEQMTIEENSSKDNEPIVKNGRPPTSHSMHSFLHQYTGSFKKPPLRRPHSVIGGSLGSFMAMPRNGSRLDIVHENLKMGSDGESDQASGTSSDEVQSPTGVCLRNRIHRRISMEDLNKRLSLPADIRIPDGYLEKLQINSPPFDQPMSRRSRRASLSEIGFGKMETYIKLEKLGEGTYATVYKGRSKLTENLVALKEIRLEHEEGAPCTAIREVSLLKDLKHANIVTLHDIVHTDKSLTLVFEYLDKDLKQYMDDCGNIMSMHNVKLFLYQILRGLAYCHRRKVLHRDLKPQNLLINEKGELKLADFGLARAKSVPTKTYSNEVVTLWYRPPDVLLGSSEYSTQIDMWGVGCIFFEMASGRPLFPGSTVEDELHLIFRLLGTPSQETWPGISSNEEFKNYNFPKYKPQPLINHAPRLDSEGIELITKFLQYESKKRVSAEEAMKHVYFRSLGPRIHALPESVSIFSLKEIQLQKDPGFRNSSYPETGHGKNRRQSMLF
Chain of CDK17/Cyclin Y (Q8ND76 whole entry partner): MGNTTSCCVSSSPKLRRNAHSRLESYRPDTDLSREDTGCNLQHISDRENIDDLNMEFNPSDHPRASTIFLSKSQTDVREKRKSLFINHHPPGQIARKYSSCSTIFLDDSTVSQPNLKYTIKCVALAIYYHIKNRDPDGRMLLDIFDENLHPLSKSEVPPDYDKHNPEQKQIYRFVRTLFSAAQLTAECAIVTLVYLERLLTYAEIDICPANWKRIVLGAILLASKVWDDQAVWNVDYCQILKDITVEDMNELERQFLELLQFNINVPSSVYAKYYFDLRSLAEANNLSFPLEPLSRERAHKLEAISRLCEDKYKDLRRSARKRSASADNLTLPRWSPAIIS

[3] = molecular target: CDK2/Cyclin E1 (Homo sapiens, UniProt P24941); assay: NanoBRET live-cell target engagement, CDK2-NanoLuc/Cyclin E1 in HEK-293; format: binding; conditions: CDK2/E1, 10µM
[4] = molecular target: CDK16/Cyclin Y (Homo sapiens, UniProt Q00536); assay: NanoBRET live-cell target engagement, CDK16-NanoLuc/Cyclin Y in HEK-293; format: binding; conditions: CDK16/Y, 10µM
[5] = molecular target: CDK6/Cyclin D1 (Homo sapiens, UniProt Q00534); assay: NanoBRET live-cell target engagement, NanoLuc-CDK6/Cyclin D1 in HEK-293; format: binding; conditions: CDK6/D1, 10µM
Chain of CDK6/Cyclin D1 (Q00534 whole entry): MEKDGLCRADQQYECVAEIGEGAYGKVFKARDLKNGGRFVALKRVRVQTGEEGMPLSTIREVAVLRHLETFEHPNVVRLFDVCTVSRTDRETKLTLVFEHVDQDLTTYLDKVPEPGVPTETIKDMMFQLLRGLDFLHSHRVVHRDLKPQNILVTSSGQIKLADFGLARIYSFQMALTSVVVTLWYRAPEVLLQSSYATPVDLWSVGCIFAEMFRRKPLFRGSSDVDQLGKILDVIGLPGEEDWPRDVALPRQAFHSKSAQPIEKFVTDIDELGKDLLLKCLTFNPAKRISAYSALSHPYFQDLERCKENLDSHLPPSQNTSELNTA
Chain of CDK6/Cyclin D1 (P24385 whole entry partner): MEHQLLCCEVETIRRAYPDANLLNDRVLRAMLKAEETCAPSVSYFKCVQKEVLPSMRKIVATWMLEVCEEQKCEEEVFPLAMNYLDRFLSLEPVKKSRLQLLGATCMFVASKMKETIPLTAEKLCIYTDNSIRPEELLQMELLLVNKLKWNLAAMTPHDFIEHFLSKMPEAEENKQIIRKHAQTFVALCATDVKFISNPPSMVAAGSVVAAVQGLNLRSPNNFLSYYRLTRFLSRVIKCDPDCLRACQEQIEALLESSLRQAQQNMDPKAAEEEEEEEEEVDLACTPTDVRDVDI

[6] = molecular target: CDK13/Cyclin K (Homo sapiens, UniProt Q14004); assay: NanoBRET live-cell target engagement, CDK13-NanoLuc/Cyclin K in HEK-293; format: binding; conditions: CDK13/K, 10µM
Chain of CDK13/Cyclin K (O75909 whole entry): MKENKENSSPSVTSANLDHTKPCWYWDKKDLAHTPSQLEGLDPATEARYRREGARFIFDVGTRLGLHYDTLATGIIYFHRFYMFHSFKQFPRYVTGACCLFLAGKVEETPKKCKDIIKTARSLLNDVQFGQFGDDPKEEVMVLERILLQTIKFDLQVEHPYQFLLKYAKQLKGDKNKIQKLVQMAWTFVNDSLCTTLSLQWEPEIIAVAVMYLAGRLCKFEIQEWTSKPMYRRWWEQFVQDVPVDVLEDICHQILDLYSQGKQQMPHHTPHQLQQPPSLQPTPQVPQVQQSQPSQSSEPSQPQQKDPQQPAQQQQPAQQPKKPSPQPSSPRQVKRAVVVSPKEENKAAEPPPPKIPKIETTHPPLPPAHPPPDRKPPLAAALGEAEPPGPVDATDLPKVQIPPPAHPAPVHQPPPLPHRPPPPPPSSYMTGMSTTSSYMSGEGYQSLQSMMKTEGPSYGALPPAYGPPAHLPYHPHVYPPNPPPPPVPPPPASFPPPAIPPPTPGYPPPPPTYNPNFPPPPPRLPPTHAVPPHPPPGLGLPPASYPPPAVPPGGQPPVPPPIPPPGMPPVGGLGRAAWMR
Chain of CDK13/Cyclin K (Q14004 other isoform, or with tags, fused parts or gaps): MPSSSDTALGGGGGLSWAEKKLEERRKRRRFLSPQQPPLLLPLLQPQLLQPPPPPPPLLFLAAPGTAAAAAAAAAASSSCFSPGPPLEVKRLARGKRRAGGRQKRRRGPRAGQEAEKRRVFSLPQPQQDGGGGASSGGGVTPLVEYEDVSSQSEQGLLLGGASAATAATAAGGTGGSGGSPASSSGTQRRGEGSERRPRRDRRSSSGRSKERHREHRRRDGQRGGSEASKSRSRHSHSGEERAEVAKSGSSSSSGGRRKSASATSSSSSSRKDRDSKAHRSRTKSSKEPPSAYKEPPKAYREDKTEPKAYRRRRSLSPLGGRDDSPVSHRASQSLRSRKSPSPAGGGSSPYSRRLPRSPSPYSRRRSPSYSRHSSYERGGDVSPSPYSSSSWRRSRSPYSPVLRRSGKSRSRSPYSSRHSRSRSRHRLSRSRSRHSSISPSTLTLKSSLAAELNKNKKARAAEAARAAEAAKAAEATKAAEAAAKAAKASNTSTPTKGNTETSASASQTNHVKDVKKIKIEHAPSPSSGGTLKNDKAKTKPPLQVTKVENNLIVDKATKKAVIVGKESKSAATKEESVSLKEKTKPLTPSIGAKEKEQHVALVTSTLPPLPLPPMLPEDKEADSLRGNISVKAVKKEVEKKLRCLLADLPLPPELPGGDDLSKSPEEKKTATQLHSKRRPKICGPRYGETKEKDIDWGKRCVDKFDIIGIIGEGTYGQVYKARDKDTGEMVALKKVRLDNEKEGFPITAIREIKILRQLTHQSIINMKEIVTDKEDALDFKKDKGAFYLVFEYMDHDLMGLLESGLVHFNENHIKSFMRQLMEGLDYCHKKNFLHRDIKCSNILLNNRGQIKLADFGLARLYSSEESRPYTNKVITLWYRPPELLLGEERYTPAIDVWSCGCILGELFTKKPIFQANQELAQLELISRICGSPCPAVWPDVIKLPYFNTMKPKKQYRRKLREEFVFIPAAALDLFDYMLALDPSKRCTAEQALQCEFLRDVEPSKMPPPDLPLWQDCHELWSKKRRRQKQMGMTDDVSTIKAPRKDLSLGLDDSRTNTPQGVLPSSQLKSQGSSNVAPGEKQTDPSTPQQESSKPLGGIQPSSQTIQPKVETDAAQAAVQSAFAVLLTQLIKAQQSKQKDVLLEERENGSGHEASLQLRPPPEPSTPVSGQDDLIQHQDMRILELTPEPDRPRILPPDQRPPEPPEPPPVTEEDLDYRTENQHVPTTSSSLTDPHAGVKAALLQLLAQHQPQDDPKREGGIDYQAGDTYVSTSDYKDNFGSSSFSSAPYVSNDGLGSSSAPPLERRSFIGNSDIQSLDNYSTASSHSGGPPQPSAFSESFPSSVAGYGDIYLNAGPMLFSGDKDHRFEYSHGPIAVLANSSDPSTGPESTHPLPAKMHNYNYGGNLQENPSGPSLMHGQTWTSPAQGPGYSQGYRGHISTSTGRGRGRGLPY

[7] = molecular target: CDK12/Cyclin K (Homo sapiens, UniProt Q9NYV4); assay: NanoBRET live-cell target engagement, CDK12-NanoLuc/Cyclin K in HEK-293; format: binding; conditions: CDK12/K, 10µM
[8] = molecular target: CDK5/CDK5R1 (Homo sapiens, UniProt Q00535); assay: NanoBRET live-cell target engagement, CDK5-NanoLuc/CDK5R1 in HEK-293; format: binding; conditions: CDK5/CDK5R1, 10µM
[9] = molecular target: CDK14/Cyclin Y (Homo sapiens, UniProt O94921); assay: NanoBRET live-cell target engagement, CDK14-NanoLuc/Cyclin Y in HEK-293; format: binding; conditions: CDK14/Y, 10µM
Chain of CDK14/Cyclin Y (O94921 whole entry): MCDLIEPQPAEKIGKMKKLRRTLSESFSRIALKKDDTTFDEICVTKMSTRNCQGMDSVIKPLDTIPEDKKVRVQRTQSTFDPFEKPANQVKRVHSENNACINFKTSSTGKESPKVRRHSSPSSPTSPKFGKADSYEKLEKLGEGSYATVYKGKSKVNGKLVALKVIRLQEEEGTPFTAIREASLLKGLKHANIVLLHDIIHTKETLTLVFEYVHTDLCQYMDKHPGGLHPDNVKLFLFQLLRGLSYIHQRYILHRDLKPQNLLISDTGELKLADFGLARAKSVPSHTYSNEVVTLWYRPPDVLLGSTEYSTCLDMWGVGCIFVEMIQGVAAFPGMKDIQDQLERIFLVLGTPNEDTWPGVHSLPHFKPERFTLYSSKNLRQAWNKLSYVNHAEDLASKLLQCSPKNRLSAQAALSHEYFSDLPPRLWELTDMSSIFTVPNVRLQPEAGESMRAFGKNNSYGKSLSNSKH
Chain of CDK14/Cyclin Y (Q8ND76 whole entry partner): as the sequence (Q8ND76 whole entry partner) above

[10] = molecular target: CDK8/Cyclin C (Homo sapiens, UniProt P49336); assay: NanoBRET live-cell target engagement, NanoLuc-CDK8/Cyclin C in HEK-293; format: binding; conditions: CDK8/C, 10µM
[11] = molecular target: CDK1/Cyclin E1 (Homo sapiens, UniProt P06493); assay: NanoBRET live-cell target engagement, CDK1-NanoLuc/Cyclin E1 in HEK-293; format: binding; conditions: CDK1/E1, 10µM
[12] = molecular target: CDK20/Cyclin H (Homo sapiens, UniProt Q8IZL9); assay: NanoBRET live-cell target engagement, NanoLuc-CDK20/Cyclin H in HEK-293; format: binding; conditions: CDK20/H, 10µM
[13] = molecular target: CDK18/Cyclin Y (Homo sapiens, UniProt Q07002); assay: NanoBRET live-cell target engagement, CDK18-NanoLuc/Cyclin Y in HEK-293; format: binding; conditions: CDK18/Y, 10µM
Chain of CDK18/Cyclin Y (Q07002 whole entry): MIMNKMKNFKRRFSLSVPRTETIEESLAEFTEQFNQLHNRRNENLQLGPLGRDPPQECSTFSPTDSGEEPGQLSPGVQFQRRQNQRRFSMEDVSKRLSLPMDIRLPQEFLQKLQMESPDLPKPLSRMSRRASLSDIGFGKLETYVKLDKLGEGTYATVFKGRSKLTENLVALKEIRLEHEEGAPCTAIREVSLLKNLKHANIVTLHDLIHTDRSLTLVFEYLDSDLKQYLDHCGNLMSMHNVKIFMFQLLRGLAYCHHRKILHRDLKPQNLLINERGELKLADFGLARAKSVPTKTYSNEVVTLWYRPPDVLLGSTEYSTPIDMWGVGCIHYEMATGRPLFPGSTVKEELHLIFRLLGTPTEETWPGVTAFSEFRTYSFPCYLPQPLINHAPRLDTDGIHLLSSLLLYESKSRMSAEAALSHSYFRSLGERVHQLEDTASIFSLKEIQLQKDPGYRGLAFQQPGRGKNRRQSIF
Chain of CDK18/Cyclin Y (Q8ND76 whole entry partner): as the sequence (Q8ND76 whole entry partner) above

[14] = molecular target: CDK19/Cyclin C (Homo sapiens, UniProt Q9BWU1); assay: NanoBRET live-cell target engagement, NanoLuc-CDK19/Cyclin C in HEK-293; conditions: 10µM
[15] = molecular target: T1, CDK11A/Cyclin L2 (Homo sapiens, UniProt Q9UQ88); assay: NanoBRET live-cell target engagement, CDK11A-NanoLuc/Cyclin L2 in HEK-293; format: binding; conditions: CDK11a/L2, 10µM
T1 sequence (Q9UQ88 1-783): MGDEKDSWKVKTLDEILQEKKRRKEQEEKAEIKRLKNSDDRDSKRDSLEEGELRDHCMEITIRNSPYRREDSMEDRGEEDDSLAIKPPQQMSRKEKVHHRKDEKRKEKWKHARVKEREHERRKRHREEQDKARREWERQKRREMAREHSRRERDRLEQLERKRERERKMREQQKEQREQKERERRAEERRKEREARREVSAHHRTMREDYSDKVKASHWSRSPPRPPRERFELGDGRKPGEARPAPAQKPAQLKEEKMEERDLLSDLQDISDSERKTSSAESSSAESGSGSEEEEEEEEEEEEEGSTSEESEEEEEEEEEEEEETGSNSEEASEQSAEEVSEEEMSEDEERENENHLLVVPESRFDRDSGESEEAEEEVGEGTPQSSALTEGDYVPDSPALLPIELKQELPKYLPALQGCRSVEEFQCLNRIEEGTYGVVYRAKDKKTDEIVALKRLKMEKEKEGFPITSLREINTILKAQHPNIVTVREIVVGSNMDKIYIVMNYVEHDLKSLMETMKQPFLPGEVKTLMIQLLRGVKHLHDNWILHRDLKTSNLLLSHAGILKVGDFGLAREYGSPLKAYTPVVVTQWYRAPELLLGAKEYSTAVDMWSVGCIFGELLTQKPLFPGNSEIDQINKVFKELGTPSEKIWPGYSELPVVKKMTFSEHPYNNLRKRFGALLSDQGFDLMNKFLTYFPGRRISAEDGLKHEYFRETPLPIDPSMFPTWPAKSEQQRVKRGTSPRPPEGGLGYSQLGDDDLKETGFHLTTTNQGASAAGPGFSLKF

[16] = molecular target: CDK11B/Cyclin L2 (Homo sapiens, UniProt P21127); assay: NanoBRET live-cell target engagement, CDK11B-NanoLuc/Cyclin L2 in HEK-293; format: binding; conditions: CDK11b/L2, 10µM
[17] = molecular target: CDK10/Cyclin L2 (Homo sapiens, UniProt Q15131); assay: NanoBRET live-cell target engagement, CDK10-NanoLuc/Cyclin L2 in HEK-293; conditions: 10µM
Chain of CDK10/Cyclin L2 (Q15131 whole entry): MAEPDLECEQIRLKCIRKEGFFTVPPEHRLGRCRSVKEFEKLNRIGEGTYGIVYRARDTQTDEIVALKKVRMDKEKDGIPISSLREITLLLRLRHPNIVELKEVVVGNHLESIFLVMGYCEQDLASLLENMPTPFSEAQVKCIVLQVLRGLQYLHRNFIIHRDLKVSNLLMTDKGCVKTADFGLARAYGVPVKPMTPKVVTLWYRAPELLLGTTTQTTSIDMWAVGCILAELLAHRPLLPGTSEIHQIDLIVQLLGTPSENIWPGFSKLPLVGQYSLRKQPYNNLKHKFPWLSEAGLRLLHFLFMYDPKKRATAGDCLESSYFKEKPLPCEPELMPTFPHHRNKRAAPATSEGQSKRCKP

[18] = molecular target: CDK9/Cyclin K (Homo sapiens, UniProt P50750); assay: NanoBRET live-cell target engagement, NanoLuc-CDK9/Cyclin K in HEK-293; format: binding; conditions: for inhibition at 10 µM: CDK9/K
[19] = molecular target: CDK4/Cyclin D1 (Homo sapiens, UniProt P11802); assay: NanoBRET live-cell target engagement, NanoLuc-CDK4/Cyclin D1 in HEK-293; format: binding; conditions: CDK4/D1, 10µM
[20] = average of replicates, read-out: Inhibition at 10µM (%) Average
[21] = read-out: Inhibition at 10µM (%) Replicate 1
[22] = read-out: Inhibition at 10µM (%) Replicate 2

inhibition at 10 µM [1, 20]: 40%
inhibition at 10 µM [1, 21]: 31.9%
inhibition at 10 µM [1, 22]: 48.2%
inhibition at 10 µM [2, 20]: 59.9%
inhibition at 10 µM [2, 21]: 56.6%
inhibition at 10 µM [2, 22]: 63.1%
inhibition at 10 µM [3, 20]: 72.3%
inhibition at 10 µM [3, 21]: 71%
inhibition at 10 µM [3, 22]: 73.6%
inhibition at 10 µM [4, 21]: 62.8%
inhibition at 10 µM [4, 22]: 66.7%
inhibition at 10 µM [5, 20]: 86.3%
inhibition at 10 µM [5, 21]: 83.5%
inhibition at 10 µM [5, 22]: 89.1%
inhibition at 10 µM [6, 20]: 23.2%
inhibition at 10 µM [6, 21]: 23.5%
inhibition at 10 µM [6, 22]: 22.8%
inhibition at 10 µM [7, 20]: 25.3%
inhibition at 10 µM [7, 21]: 33%
inhibition at 10 µM [7, 22]: 17.7%
inhibition at 10 µM [8, 20]: 56.6%
inhibition at 10 µM [8, 21]: 44.9%
inhibition at 10 µM [8, 22]: 68.3%
inhibition at 10 µM [9, 20]: 19.5%
inhibition at 10 µM [9, 21]: 16.7%
inhibition at 10 µM [9, 22]: 22.4%
inhibition at 10 µM [10, 20]: 9.9%
inhibition at 10 µM [10, 21]: 13.9%
inhibition at 10 µM [10, 22]: 5.9%
inhibition at 10 µM [11, 20]: 56%
inhibition at 10 µM [11, 21]: 55.2%
inhibition at 10 µM [11, 22]: 56.8%
inhibition at 10 µM [12, 21]: 8.6%
inhibition at 10 µM [12, 22]: 8.9%
inhibition at 10 µM [13, 20]: 46.2%
inhibition at 10 µM [13, 21]: 38.7%
inhibition at 10 µM [13, 22]: 53.8%
inhibition at 10 µM ([14]; read-out: Inhibition at 10µM (%) Average, CDK19/C, average of replicates): 21.3%
inhibition at 10 µM ([14]; read-out: Inhibition at 10µM (%) Replicate 1, CDK19/C): 28.8%
inhibition at 10 µM ([14]; read-out: Inhibition at 10µM (%) Replicate 2, CDK19/C): 13.7%
inhibition at 10 µM [15, 20]: 44%
inhibition at 10 µM [15, 21]: 39.5%
inhibition at 10 µM [15, 22]: 48.5%
inhibition at 10 µM [16, 20]: 33.9%
inhibition at 10 µM [16, 21]: 35.6%
inhibition at 10 µM [16, 22]: 32.1%
inhibition at 10 µM ([17]; read-out: Inhibition at 10µM (%) Average, CDK10/L2, average of replicates): 45%
inhibition at 10 µM ([17]; read-out: Inhibition at 10µM (%) Replicate 1, CDK10/L2): 38.6%
inhibition at 10 µM ([17]; read-out: Inhibition at 10µM (%) Replicate 2, CDK10/L2): 51.4%
inhibition at 10 µM [18, 20]: 99.8%
inhibition at 10 µM [18, 21]: 99.5%
inhibition at 10 µM [18, 22]: 100%
CDK9 Occupancy Data, Plasmid ([18]; LOG10([BAY-1251152]) (LOG10(µM)) 0.045757): 99.1453
CDK9 Occupancy Data, Plasmid ([18]; LOG10([BAY-1251152]) (LOG10(µM)) 0.522879): 96.1111
CDK9 Occupancy Data, Plasmid ([18]; LOG10([BAY-1251152]) (LOG10(µM)) 1): 96.4103
CDK9 Occupancy Data, Plasmid ([18]; LOG10([BAY-1251152]) (LOG10(µM)) -0.43136): 97.094
CDK9 Occupancy Data, Plasmid ([18]; LOG10([BAY-1251152]) (LOG10(µM)) -0.90849): 95.641
CDK9 Occupancy Data, Plasmid ([18]; LOG10([BAY-1251152]) (LOG10(µM)) -1.38561): 91.9658
CDK9 Occupancy Data, Plasmid ([18]; LOG10([BAY-1251152]) (LOG10(µM)) -1.86273): 87.906
CDK9 Occupancy Data, Plasmid ([18]; LOG10([BAY-1251152]) (LOG10(µM)) -2.33985): 67.9487
CDK9 Occupancy Data, Plasmid ([18]; LOG10([BAY-1251152]) (LOG10(µM)) -2.81697): 29.4872
CDK9 Occupancy Data, Plasmid ([18]; LOG10([BAY-1251152]) (LOG10(µM)) -3.29409): 6.838
CDK9 Occupancy Data, Plasmid ([18]; LOG10([BAY-1251152]) (LOG10(µM)) -3.77121): 1.421e-14
inhibition at 10 µM [19, 20]: 79.7%
inhibition at 10 µM [19, 21]: 75.9%
inhibition at 10 µM [19, 22]: 83.4%
Compound: COc1cc(F)ccc1-c1cc(Nc2cc(CS(C)(=N)=O)ccn2)ncc1F (stereo not drawn) [BAY-1251152]
